System: STZ‐induced hyperglycemic 3 × Tg‐AD mice
Experiment: Morris water maze task in STZ‐treated 3 × Tg‐AD mice
Assay type: in vivo, mouse
Settings: for Morris water maze latency to hidden platform: 40 mg/kg i.p.
Experimental: Mice harboring APPSwe, PS1M146V, and […] transgenes (3×Tg-AD) (Oddo et al., 2003) were purchased from the Jackson Laboratory (004807; Bar Harbor, ME, USA). Six-month-old male homozygous 3×Tg-AD mice were group housed at 20–25°C and 60% relative humidity under a daily 12-h light/12-h dark cycle, with assess to food and water ad libitum. Mice were randomly divided into 3 groups: – streptozocin (STZ), STZ, and STZ/LM-031 (n = 10 per group). STZ-induced hyperglycemia was used to accelerate the development of AD phenotype (Chen et al., 2014). Briefly, the mice were fasted for 12 h each day prior to intraperitoneal (i.p.) injection of STZ ([…]; Sigma-Aldrich) or vehicle (0.1 M sodium citrate pH4.5) for 4 times (days 2, 3, 9, and 10) (Chen et al., 2019). Mouse body weight was measured and blood glucose level was measured on days 1, 8, 15, 22, and 29 using a blood glucose meter (Bioland Technology, Taipei, Taiwan). LM-031 (40 mg/kg) or vehicle (DMSO:Cremophor EL:0.9% saline = 1:2:7) was intraperitoneally injected every day for 22 days from days 15 to 36. All animal procedures were ethically approved by the Institutional Animal Care and Use Committee of National Taiwan Normal University, Taipei, Taiwan (Permit Number: 103002) and were conducted in compliance with the ARRIVE (Animal Research: Reporting In Vivo Experiments) guidelines.
The water maze apparatus consisted of a circular pool with diameter 100 cm and height 76 cm, a submerged platform 1 cm below the water surface, four types of cues providing distal landmarks in the testing room, and a video camera suspended 250 cm above the center of the pool and connected to a video tracking system. The pool was filled up with water (24–26°C, 35 cm high) rendered opaque by the addition of nontoxic white paint. Mice relied on external cues to find the hidden platform in opaque water. One day prior to spatial training, all mice underwent pretraining to examine animals’ swimming ability and to acclimatize them to the pool. For pretraining (day 29), each mouse was placed in the pool to swim for 60 sec. After three trials, a platform was placed in the center of the pool and the mouse was allowed to remain there for 20 sec. For training (days 30–33), the platform was placed in a quadrant and each mouse received four trials per day for 4 consecutive days, with a cue signaling the platform position. The submerged platform remained there and entry points changed semi-randomly throughout all trials. The trial ended either when the mouse climbed onto the platform or when 60 seconds had elapsed. At the end of each trial the mouse was placed on the platform and faced the cue for 20 sec, learning where the platform was. […] All the data were analyzed by PhenoTracker.

O=C(c1ccccc1)c1cc2c(O)cccc2oc1=O [LM‐031, 3‐benzoyl‐5‐hydroxychromen‐2‐one] was tested, and the “Morris water maze duration in target quadrant” value (probe trials 2 and 48 hr (days 34 and 36), STZ 17 s, – STZ 26 s) was 24 s, the “Morris water maze latency to hidden platform” value (“Morris water maze latency” below) (testing on day 34, STZ 39 s, – STZ 21 s) was 26 s and the “Morris water maze latency” value (training day 3, STZ 43 s, – STZ 31 s) was 31 s. The “Morris water maze latency” value (training day 4, STZ 40 s, – STZ 26 s) was 30 s.

From publication PMC7433010, “Exploration of multi‐target effects of 3‐benzoyl‐5‐hydroxychromen‐2‐one in Alzheimer’s disease cell and mouse models” (Aging Cell, 2020)
